Holding throughout (assay): NCI tumour cell line growth inhibition, 48 h
Experiment [1] deals with A549 NSCLC.
The subject of experiment [2] is COLO 205 colon.
The subject of experiment [3] is SK-MEL-5 melanoma.
For experiment [4], the system named is SF-539 CNS.
Experiment [5] concerns A498 renal.
Experiment [6] deals with SN12C renal.
Experiment [7] relates to HCT-15 colon.
Experiment [8] relates to NCI/ADR-RES ovarian.
The test system of experiment [9] is HOP-92 NSCLC.
Experiment [10] concerns DU-145 prostate.

Values joined by “and” are separate entries in the source; they are usually repeats but may differ in a detail not shown here. Equal values may be shown once.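 Assay format: 96-well plates, 48-hour exposure. Here, GI50 denotes the concentration required for 50% inhibition of growth. TGI: total growth inhibition.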

Regarding `COC(=O)CCC12CCC(=O)C1[C@@H](C(=O)OC)C[C@H]2C(=O)OC` (some centres undefined), the TGI in [1], in [2], in [3], in experiment [4], in [5] and in experiment [6] was above 100 µM throughout. Besides, in experiment [7], the TGI is above 100 µM.

With `COc1ccc2c(c1OC)-c1c(c3ccc([N+](=O)[O-])cc3c(=O)n1CCCBr)C2=O`, the GI50 is 42.4 µM in experiment [1]; 26 µM in [8]; above 100 µM in experiment [2]; 18.1 µM in experiment [3]; above 100 µM in experiment [5]; 36.2 µM in [6]. The TGI was above 100 µM in experiment [1]; 98.9 µM in experiment [8]; above 100 µM in [2]; above 100 µM in [3]; above 100 µM in experiment [5]; above 100 µM in experiment [6].

With `Cc1c2c(cc3c1C(=O)C(=O)C1=C3OC[C@@H]1C)C(C)(C)CCC2`, the TGI in experiment [1] was found to be 26.8 µM; in experiment [2], 20.4 µM; in [3] it was 26.1 µM; in [4] it was 29.8 µM; in [5] it was 59.6 µM; in experiment [6] it was 34.6 µM. The TGI in experiment [9] is 61.2 µM; in [7], 27.6 µM.

As to `O=C1C(=O)N(c2ccc(Cl)cc2)C(=O)C(=O)C1c1nc2ccccc2s1`, the TGI in [2], in experiment [3], in experiment [4], in experiment [6], in experiment [9] and in experiment [7] was above 100 µM in each case.

Regarding `COc1ccc(-c2cc(C(=O)Nc3cc(C(F)(F)F)cc(C(F)(F)F)c3)c3ccccc3n2)cc1`, the TGI in experiment [1] came to 17.5 µM; in experiment [2], 28.4 µM; in experiment [3], 34.6 µM; in [4], 28.4 µM; in experiment [5], 40 µM; in experiment [6], 25.1 µM. This molecule also gave a TGI in experiment [7] of 28.7 µM.

As to `Cc1ccc(Oc2ccccc2N)cc1`, the TGI is above 100 µM in experiment [1]; 19.2 µM in experiment [2]; 26.2 µM in [3]; 40.1 µM in experiment [4]; above 100 µM in experiment [5]; above 100 µM in [6]. Further, the TGI in [9] and in experiment [7] was above 100 µM throughout.

As to `Clc1cccc(N2CCN(CCCN3CCc4c([nH]c5ccccc45)C3c3cccnc3)CC2)c1` (centres undefined), the GI50 in [1] is 16.1 µM; in experiment [2] it was 5.42 µM; in [3], 6.79 µM; in [4], 11.7 µM; in [9] it was 12.8 µM. Further, the TGI in experiment [1] stood at 36.9 µM; in experiment [2], 21.9 µM; in experiment [3], 24.9 µM; in [4], 32.3 µM; in experiment [5], 27.2 µM; in [6] it was 30.3 µM. In addition, the TGI in [9] was determined as 31.3 µM; in experiment [7] it was 21.8 µM.

As to `[O-]c1ccccc1C=Nc1ccc2c(c1)CCC2.[O-]c1ccccc1C=Nc1ccc2c(c1)CCC2.[O]=[U+2]=[O]`, the GI50 was above 100 µM in experiment [1]; 55.2 µM in experiment [2]; 60.8 µM in experiment [3]; 14.2 µM in [4]; above 100 µM in experiment [5]; above 100 µM in [6]. For the same molecule, in experiment [7], the GI50 was 28.3 µM. Further, the TGI in experiment [1], in experiment [2], in experiment [3], in experiment [4], in experiment [5] and in [6] was above 100 µM throughout. Besides, the TGI in [7] is above 100 µM.

Turning to `NNc1cnn(-c2ccccc2)c(=O)c1Cl`, the TGI in [1], in experiment [2], in experiment [3], in [4], in experiment [5] and in experiment [6] was above 100 µM each time. Moreover, the TGI in experiment [9] and in [7] was above 100 µM in each case.

Consider `Cc1c(C(=O)/C=C/C=C/c2ccccc2)[n+](=O)c2ccccc2n1[O-]`, for which the TGI was 82.3 µM in experiment [1]; above 100 µM in experiment [2]; 44.4 µM in experiment [3]; above 100 µM in experiment [4]; above 100 µM in experiment [5]; 73.2 µM in [6]. The TGI in experiment [9] was 89.1 µM; in [7] it was 36.9 µM.

Turning to `CC(C)(O)/C=C/C(=O)[C@](C)(O)[C@H]1[C@H](O)C[C@@]2(C)[C@@H]3CC=C4[C@@H](C[C@H](O)C(=O)C4(C)C)[C@]3(C)C(=O)C[C@]12C`, the GI50 was 0.224 µM in experiment [1]; 0.0919 µM in [2]; 0.0565 µM and 0.11 µM in [3]; 0.217 µM in [4]; 0.0909 µM in experiment [5]; 0.355 µM in [6]. The GI50 in [9] was 0.255 µM; in experiment [7] it was 0.0862 µM and 0.159 µM. Besides, the TGI in [1] was 16.5 µM; in experiment [3], 0.682 µM and 2.44 µM; in experiment [4], 0.614 µM and 0.264 µM; in experiment [5], 0.244 µM and 0.115 µM; in [6], 28 µM; in [9], 0.439 µM and 0.407 µM.

On to `C#CCNC(=S)N/N=C(\C)c1ccccn1`, for which the GI50 in experiment [1] is 1.18 µM; in experiment [10], 0.404 µM; in experiment [2], 0.184 µM; in [3], 0.617 µM; in experiment [4] it was 0.35 µM; in experiment [5] it was 1.07 µM. Further, the GI50 in experiment [6] is 0.388 µM; in [9], 0.28 µM; in experiment [7], 0.36 µM. Besides, the TGI in experiment [1] was above 100 µM; in experiment [10], above 59.3 µM; in [2], above 100 µM; in [3], 2.7 µM; in [4], 3.52 µM; in [5] it was 10.1 µM. Also, the TGI in experiment [6], in [9] and in experiment [7] was above 100 µM each time.

As for `O=C(O)c1cc(=O)c2c([nH]c3ccccc32)s1`, the TGI in [1], in experiment [2], in experiment [3], in [6], in experiment [9] and in experiment [7] was above 100 µM each time.

The record behind these values is PubChem BioAssay (NCI).
